Measured values: patent publication US9265741B2, “Molecules to perfect HbA1c levels” (Neville Pharmaceutical, Inc., priority 2011, dated 2016)

Key:
[1] = Safety test in human volunteers; assay type: in vivo; conditions: clinically prescribed doses
Description: Methyl pyruvate performs as a lipophilic antisense-like bullet that penetrates cell membranes, mitochondrial membranes and nuclear membranes with its active and passive delivery of energy via protons, adenosine triphosphate manufacture (ATP) and methylation. This energy delivering metabolic bullet upregulates all cytosolic and nuclear capabilities. It can even negate messenger RNA (mRNA) expression. Now, because of instant protons and pyruvate delivered, there is immediately empowered glycolysis and/or CAC production of ATP and the cell functions with more efficient performance. Through this newly available energy, gene silencing can be reversed, repairs completed, apoptosis performed, and the cell is upgraded and/or divides (cell partitioning) into a new and improved cell having shed its prior oxidative cellular/genetic debris. In DM this means improved Glut4 networking, improved insulin sensitivity, increased intra and intercellular networking and increased superoxide dismutase (SOD) production. Further, due to MP, many nutrients and complicit molecules including peroxisome proliferator-activator receptor (Ppars) will now function more effectively and efficiently, i.e. as infused and increased cellular energy can now affect niacinamide (B3) and nicotinamide adenine dinucleotide (NAD) at an intracellular level that enables and protects beta cell function. […]

[2] = tested on: pancreatic rat islet cells; experiment: MP instilled into pancreatic rat islet cells; insulin manufacture; assay type: cell-based; conditions: pancreatic rat islet cells (animal model), several studies
Description: The methyl pyruvate molecule and certain of these molecular analogues are lipophilic antisense-like permeants, each of which holds onto its own membrane penetrability as well as acting collectively to produce a timed release delivery within the inner mitochondria. The combinational synergy can be different than each effect individually. […] This up regulation is key for enhanced utilization and regulation of glucose transport. MP closes potassium channels and opens calcium channels (via aquaporin generation) allowing a more favorable cellular milieu (increases cytosolic pH) that increases CAC productivity via our delivered MP (as pyruvate), as well as the now utilizable glucose. The use of MP and/or EP as energy molecules allows gene silenced and disabled near-apoptotic cells to proceed logically/genomically to a more idealized homeostatic state for the organism. The invention represents a method for genomic self-regulation of HbA1c.
MP instilled into pancreatic rat islet cells enable upregulation of insulin manufacture six-fold in several studies. The measured Jurkat current is countered and neutralized by MP's proton impedance enhancing its later provocation in increased insulin manufacture.

HbA1c = experiment: Twelve patients with DM took MP for three months; HbA1c measured; assay type: in vivo, human
Description: Twelve patients with DM, including a juvenile diabetic, took two (2) grams of MP in water two (2) times per day for three (3) months without any other lifestyle change. The average decrease of HbA1c was one percent (1%). (The group average HbA1c diminished from 7.5% to 6.5% during the course of three (3) months of treatment.)

SMILES	safety in human volunteers [1]	upregulation of insulin manufacture [2]	average decrease of HbA1c (HbA1c; 2 grams of MP in water 2 times per day for 3 months, no other lifestyle change) [%]	group average HbA1c after treatment (HbA1c; after 3 months of 2 grams of MP in water 2 times per day) [%]	group average HbA1c before treatment (HbA1c; start of treatment (baseline)) [%]
CCOC(=O)C(C)=O [EP, ethyl pyruvate]	safe				
COC(=O)C(C)=O [MP, methyl pyruvate]	safe	six-fold	1	6.5	7.5
